Bridge positions count the residues as written; N and C are the ends. Square brackets hold non-standard residues; d marks the D form. Peptide text beside a SMILES is read from it. S5 = C=CCCC[C@](C)(N)C(=O)O

Consider six molecules from patent US20210179680A1, “POLYPEPTIDE, DERIVATIVES THEREOF, AND APPLICATION THEREOF IN PREPARATION OF DRUGS HAVING RESISTANCE TO PULMONARY FIBROSIS” (priority 2016, published 2021).

Series [1] deals with mice with bleomycin-induced pulmonary fibrosis. Kind of series: Hydroxyproline content in lung of mice with pulmonary fibrosis. The format is in vivo, C57BL/6 mice. The conditions noted are these: Table 3 groups, 2 mg/kg i.p.; left lung lobes; chloramine-T method. As to the method:
Male C57BL/6 mice were fasted overnight, then anesthetized with 45 mg/kg sodium pentobarbital by injection intraperitoneally (i.p.), and intratracheally injected with bleomycin at a dose of 3 U/kg. The specific operation steps are as follows: cut the neck skin of the mouse with as little trauma as possible, expose the trachea with the assistance of elbow ophthalmic forceps, puncture the trachea and inject about 50 μL of bleomycin into the trachea with a microsyringe, rotate the mouse quickly and stand it upright for 5 minutes in order to make bleomycin evenly enter the left and right lobe, thereby constructing an animal model. The whole operation was performed at a surgical table at about […]. Mice in the sham operation group were intratracheally injected with an equal amount of physiological saline for injection.
Hydroxyproline accounts for 13.4% (w/w) of collagen, and extremely small amount of elastin, while it is absent in other proteins. […] Pulmonary fibrosis models were prepared according to the method described in Example 2 and administered in groups according to Table 3. The content of hydroxyproline in the lobes of left lung of the animals was measured 28 days later, and the condition of pulmonary fibrosis was evaluated.
The specific method is as follows: the mice in the animal model prepared in Example 2 was feed in a SPF animal room and treated with polypeptide according to the dosing schedule of Table 3, and all left lobes of lung of the experimental animal was taken on the 21st day after the animal model was constructed and the wet weight was recorded. Then 10% (w/w) tissue homogenate was prepared by ultrasonic homogenization using physiological saline. About 150 μL of homogenate supernatant was taken, and 500 μL of alkali hydrolysate was added (provided by Hydroxyproline alkaline hydrolysis kit of Nanjing Jiancheng Bioengineering Technology Co., Ltd.). After vortex mixing, the mixture was treated with alkaline hydrolysis for 40 min under conditions of 120° C., 0.1 Kpa. After adjusting the pH value, the volume was held constant, and the supernatant was taken after performing activated carbon treatment. The hydroxyproline was determined according to the chloramine-T method (the method of the present example refers to the instruction provided with kit, which was purchased from Nanjing Jiancheng Bioengineering Technology Co., Ltd.). […] In FIG. 10, “##” represents that P value is less than 0.01 when comparing the content of hydroxyproline in the administration group with that in the sham operation group; and “*” represents that P value is less than 0.05 and“**” represents that P value is less than 0.01 when comparing the content of hydroxyproline in the administration group with that in bleomycin group.
Hydroxyproline accounts for 13.4% (w/w) of collagen, and accounts for extremely small amount of elastin, while it is absent in other proteins. […] Pulmonary fibrosis models were prepared according to the method described in Example 2 and administered in groups according to Table 3. The content of hydroxyproline in the all lobes of left lung of the animals was measured 28 days later, and the condition of pulmonary fibrosis was evaluated.
The specific method is as follows: the mice in the animal model prepared in Example 2 was feed in an SPF animal room and treated with polypeptide according to the dosing schedule of Table 3, and all the left lobes of lung of the experimental animal was taken on the 21st day after the animal model was constructed and the wet weight was recorded. Then 10% (w/w) tissue homogenate was prepared by ultrasonic homogenization using physiological saline. About 150 μL of homogenate supernatant was taken, and 500 μL of alkali hydrolysate was added (provided by Hydroxyproline alkaline hydrolysis kit of Nanjing Jiancheng Bioengineering Technology Co., Ltd.). After vortex mixing, the mixture was treated with alkaline hydrolysis for 40 min under conditions of 120° C., 0.1 Kpa. […]

The nature of series [2]: α-helix ratio of polypeptides by circular dichroism. The series is classed as physicochemical. The conditions noted are these: PBS solution, 1 mg/mL. As to the method: The α-helix ratio of the polypeptide was measured by a circular dichromatograph (purchased from Jasco, Japan). The polypeptides MR2, S1, S2, S3, S4, S5, S6, S7, S8, S9, S10 and S11 prepared in Example 1 were dissolved in PBS solution, and the working concentration of the circular dichromatograph was adjusted to 1 mg/mL. […] Among them, the α-helix ratio refers to the percentage of the number of peptide segments of the polypeptide that maintains the alpha helix of the secondary structure in the peptide segments of the total polypeptide.

For series [3], the target named is T1, TRB3/MDM2 protein interaction (Homo sapiens, UniProt Q96RU7).
T1 construct: host or cells: BEAS-2B
T1 sequence (Q96RU7 1-358): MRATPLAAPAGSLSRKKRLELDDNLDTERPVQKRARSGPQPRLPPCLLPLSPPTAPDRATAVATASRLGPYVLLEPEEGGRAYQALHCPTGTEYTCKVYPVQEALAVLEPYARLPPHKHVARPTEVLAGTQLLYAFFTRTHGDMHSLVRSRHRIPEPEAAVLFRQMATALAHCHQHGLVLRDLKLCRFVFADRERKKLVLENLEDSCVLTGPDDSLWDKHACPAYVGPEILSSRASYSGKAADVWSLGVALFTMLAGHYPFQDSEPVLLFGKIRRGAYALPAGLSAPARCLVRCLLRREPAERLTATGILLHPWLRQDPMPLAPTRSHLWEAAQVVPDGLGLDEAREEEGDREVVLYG
Put plainly: Co-immunoprecipitation: inhibition of binding of MDM2 to TRB3 in BEAS-2B cells. The format is cell-based. The conditions noted are these: BEAS-2B cells with TRB3 expression plasmid, 1 mg/mL polypeptide, 12 hours, co-IP with MDM2 antibody. The protocol: 1. Human lung epithelial BEAS-2B cells (purchased from Institute of Basic Medical Sciences, Chinese Academy of Medical Sciences) were seeded in a 90 mm^2 culture dish. After the cells were adhered to the wall of culture dish, the TRB3 expression plasmid were transferred to the cells according to the method described in Example 5. After 24 hours, 1 mg/mL of the polypeptides MR2, S1, S2, S3, S4, S5, S6, S7, S8, S9, S10 or S11 prepared in Example 1 were added respectively, and the cells were incubated for 12 hours in a 37° C. incubator and then harvested.
2. Co-immunoprecipitation with MDM2 antibody was performed according to the method described in Example 3, followed by detection using TRB3 antibody.

Consider `CSCC[C@H](NC(=O)[C@H](CC(C)C)NC(=O)[C@@H](N)Cc1c[nH]cn1)C(=O)N[C@@H](C)C(=O)N[C@@]1(C)CCCC=CCCC[C@@](C)(C(=O)N[C@@H](CCCCN)C(=O)N[C@@H](CCCCN)C(=O)N[C@@H](CC(C)C)C(=O)N[C@@H](CCCCN)C(=O)N[C@@H](CCCCN)C(=O)N[C@@H](CCCNC(=N)N)C(=O)O)NC(=O)[C@H](CS)NC(=O)[C@H]([C@@H](C)O)NC(=O)[C@H](Cc2ccccc2)NC1=O` [S5, His-Leu-Met-Ala-S5-Phe-Thr-Cys-S5-Lys-Lys-Leu-Lys-Lys-Arg] (H-HLMA[S5]FTC[S5]KKLKKR-OH; staple 5-9; N-terminus and C-terminus assumed), for which the “hydroxyproline content (μg/mg protein)” value in series [1] is reported as 0.6575 μg/mg protein. Moreover, in series [2], the “α-helicity (%)” value amounted to 69.1% and the “α-helix ratio compared with polypeptide MR2 (in words)” value (“α-helix ratio” below) is “significantly higher than that of polypeptide MR2”. Besides, the “interaction of TRB3 and MDM2 protein (FIG. 5, in words)” value (“interaction of TRB3 and MDM2 protein” for short) in series [3] is recorded as “interrupted”.

As to `CSCC[C@H](NC(=O)[C@H](CC(C)C)NC(=O)[C@@H](N)Cc1c[nH]cn1)C(=O)N[C@@H](C)C(=O)N[C@@H](CS)C(=O)N[C@@]1(C)CCCC=CCCC[C@@](C)(C(=O)N[C@@H](CCCCN)C(=O)N[C@@H](CC(C)C)C(=O)N[C@@H](CCCCN)C(=O)N[C@@H](CCCCN)C(=O)N[C@@H](CCCNC(=N)N)C(=O)O)NC(=O)[C@H](C)NC(=O)[C@H](CS)NC(=O)[C@H]([C@@H](C)O)NC1=O` [S6, His-Leu-Met-Ala-Cys-S5-Thr-Cys-Ala-S5-Lys-Leu-Lys-Lys-Arg] (H-HLMAC[S5]TCA[S5]KLKKR-OH; staple 6-10; N-terminus and C-terminus assumed), the “hydroxyproline content (μg/mg protein)” value in series [1] is 0.8337 μg/mg protein. Moreover, in series [2], the “α-helicity (%)” value is 36.4% and the “α-helix ratio” value is “significantly higher than that of polypeptide MR2”. The “interaction of TRB3 and MDM2 protein” value in series [3] is reported as “interrupted”.

As to `CSCC[C@H](NC(=O)[C@H](CC(C)C)NC(=O)[C@@H](N)Cc1c[nH]cn1)C(=O)N[C@@H](C)C(=O)N[C@@H](CS)C(=O)N[C@@H](Cc1ccccc1)C(=O)N[C@@]1(C)CCCC=CCCC[C@@](C)(C(=O)N[C@@H](CC(C)C)C(=O)N[C@@H](CCCCN)C(=O)N[C@@H](CCCCN)C(=O)N[C@@H](CCCNC(=N)N)C(=O)O)NC(=O)[C@H](CCCCN)NC(=O)[C@H](C)NC(=O)[C@H](CS)NC1=O` [S7, His-Leu-Met-Ala-Cys-Phe-S5-Cys-Ala-Lys-S5-Leu-Lys-Lys-Arg] (H-HLMACF[S5]CAK[S5]LKKR-OH; staple 7-11; N-terminus and C-terminus assumed), the “hydroxyproline content (μg/mg protein)” value in series [1] was found to be 0.655 μg/mg protein. Moreover, in series [2], the “α-helicity (%)” value is listed as 51.0% and the “α-helix ratio” value is “significantly higher than that of polypeptide MR2”. Moreover, in series [3], the “interaction of TRB3 and MDM2 protein” value is recorded as “interrupted”.

For the molecule `CSCC[C@H](NC(=O)[C@H](CC(C)C)NC(=O)[C@@H](N)Cc1c[nH]cn1)C(=O)N[C@@H](C)C(=O)N[C@@H](CS)C(=O)N[C@@H](Cc1ccccc1)C(=O)N[C@H](C(=O)N[C@@]1(C)CCCC=CCCC[C@@](C)(C(=O)N[C@@H](CCCCN)C(=O)N[C@@H](CCCCN)C(=O)N[C@@H](CCCNC(=N)N)C(=O)O)NC(=O)[C@H](CCCCN)NC(=O)[C@H](CCCCN)NC(=O)[C@H](C)NC1=O)[C@@H](C)O` [S8, His-Leu-Met-Ala-Cys-Phe-Thr-S5-Ala-Lys-Lys-S5-Lys-Lys-Arg] (H-HLMACFT[S5]AKK[S5]KKR-OH; staple 8-12; N-terminus and C-terminus assumed), in series [1], the “hydroxyproline content (μg/mg protein)” value is 0.825 μg/mg protein. In series [2], the “α-helicity (%)” value was 29.1% and the “α-helix ratio” value is given as “significantly higher than that of polypeptide MR2”. Further, the “interaction of TRB3 and MDM2 protein” value in series [3] is “interrupted”.

Regarding `CSCC[C@H](NC(=O)[C@H](CC(C)C)NC(=O)[C@@H](N)Cc1c[nH]cn1)C(=O)N[C@@H](C)C(=O)N[C@@H](CS)C(=O)N[C@@H](Cc1ccccc1)C(=O)N[C@H](C(=O)N[C@@H](CS)C(=O)N[C@@]1(C)CCCC=CCCC[C@@](C)(C(=O)N[C@@H](CCCCN)C(=O)N[C@@H](CCCNC(=N)N)C(=O)O)NC(=O)[C@H](CC(C)C)NC(=O)[C@H](CCCCN)NC(=O)[C@H](CCCCN)NC1=O)[C@@H](C)O` [S9, His-Leu-Met-Ala-Cys-Phe-Thr-Cys-S5-Lys-Lys-Leu-S5-Lys-Arg] (H-HLMACFTC[S5]KKL[S5]KR-OH; staple 9-13; N-terminus and C-terminus assumed), the “hydroxyproline content (μg/mg protein)” value in series [1] was found to be 0.7212 μg/mg protein. In addition, in series [2], the “α-helicity (%)” value is 44.0% and the “α-helix ratio” value is “significantly higher than that of polypeptide MR2”. Moreover, the “interaction of TRB3 and MDM2 protein” value in series [3] is listed as “interrupted”.

For `CSCC[C@H](NC(=O)[C@H](CC(C)C)NC(=O)[C@@H](N)Cc1c[nH]cn1)C(=O)N[C@@H](C)C(=O)N[C@@H](CS)C(=O)N[C@@H](Cc1ccccc1)C(=O)N[C@H](C(=O)N[C@@H](CS)C(=O)N[C@@H](C)C(=O)N[C@@]1(C)CCCC=CCCC[C@@](C)(C(=O)N[C@@H](CCCNC(=N)N)C(=O)O)NC(=O)[C@H](CCCCN)NC(=O)[C@H](CC(C)C)NC(=O)[C@H](CCCCN)NC1=O)[C@@H](C)O` [S10, His-Leu-Met-Ala-Cys-Phe-Thr-Cys-Ala-S5-Lys-Leu-Lys-S5-Arg] (H-HLMACFTCA[S5]KLK[S5]R-OH; staple 10-14; N-terminus and C-terminus assumed), in series [1], the “hydroxyproline content (μg/mg protein)” value is on record as 0.8163 μg/mg protein. In series [2], the “α-helicity (%)” value stood at 31.5% and the “α-helix ratio” value is “significantly higher than that of polypeptide MR2”. The “interaction of TRB3 and MDM2 protein” value in series [3] is “interrupted”.
